From paper PMC3626541, “A first in human, safety, pharmacokinetics, and clinical activity phase I study of once weekly administration of the Hsp90 inhibitor ganetespib (STA-9090) in patients with solid malignancies” (BMC Cancer, 2013)

Tested on: patients with advanced solid tumors
Experiment: Safety: adverse events (NCI CTCAE v3.0), ECG
Assay type: in vivo, human
Method: Patients’ demographics and medical history were recorded at baseline. Physical examination and PS were assessed at baseline and on Day 1 of each cycle. Adverse events (AEs), vital signs, hematology and chemistry values, and creatinine clearance were assessed at baseline and weekly during treatment. Toxicity was graded using National Cancer Institute Common Terminology Criteria for Adverse Events (NCI CTCAE), version 3.0. An electrocardiogram (ECG) was performed at baseline, before and after treatment on Days 1 and 15 of Cycles 1 and 2, and on Day 15 of even-numbered cycles thereafter. CT scans were done at baseline and every 8 weeks thereafter. Tumor response was assessed using Response Evaluation Criteria in Solid Tumors (RECIST, v1.0), with confirmation of responses performed at least 4 weeks later.

[1] = Cycle 1 Day 1 post-dose, patients with QTc prolongation
[2] = repeat ECG later on the same day

CC(C)c1cc(-c2n[nH]c(=O)n2-c2ccc3c(ccn3C)c2)c(O)cc1O [Ganetespib, 5-[2,4-dihydroxy-5-(1 methyl-ethyl)phenyl]-2,4 dihydro-4-(1-methyl-1H indol-5 yl)-3H-1,2,4 triazole-3-one]
Dizziness, AE of any grade, Number (%) of patients (All patients, n = 53): 6 (11.3) n (%)
Dry mouth, AE of any grade, Number (%) of patients (All patients, n = 53): 6 (11.3) n (%)
Dyspnea, AE of any grade, Number (%) of patients (All patients, n = 53): 9 (17) n (%)
Extremity pain, AE of any grade, Number (%) of patients (All patients, n = 53): 6 (11.3) n (%)
Fatigue, AE of any grade, Number (%) of patients (All patients, n = 53): 30 (56.6) n (%)
Fatigue, CTCAE Grade 3 and 4 AE, Number (%) of patients (All patients, n = 53): 6 (11.3) n (%)
Headache, AE of any grade, Number (%) of patients (All patients, n = 53): 9 (17) n (%)
Hyperbilirubinemia, CTCAE Grade 3 and 4 AE, Number (%) of patients (All patients, n = 53): 3 (5.7) n (%)
Hypokalemia, AE of any grade, Number (%) of patients (All patients, n = 53): 7 (13.2) n (%)
Hypokalemia, CTCAE Grade 3 and 4 AE, Number (%) of patients (All patients, n = 53): 2 (3.8) n (%)
Hyponatremia, CTCAE Grade 3 and 4 AE, Number (%) of patients (All patients, n = 53): 3 (5.7) n (%)
Hypophosphatemia, AE of any grade, Number (%) of patients (All patients, n = 53): 7 (13.2) n (%)
Hypophosphatemia, CTCAE Grade 3 and 4 AE, Number (%) of patients (All patients, n = 53): 4 (7.5) n (%)
Insomnia, AE of any grade, Number (%) of patients (All patients, n = 53): 10 (18.9) n (%)
Musculoskeletal chest pain, AE of any grade, Number (%) of patients (All patients, n = 53): 6 (11.3) n (%)
Nausea, AE of any grade, Number (%) of patients (All patients, n = 53): 18 (34) n (%)
Peripheral edema, AE of any grade, Number (%) of patients (All patients, n = 53): 9 (17) n (%)
Pneumonia, serious adverse events, Number (%) of patients (All patients, n = 53): 2 (3.8) n (%)
Rash, AE of any grade, Number (%) of patients (All patients, n = 53): 6 (11.3) n (%)
Serum amylase elevated, CTCAE Grade 3 and 4 AE, Number (%) of patients (All patients, n = 53): 2 (3.8) n (%)
Spinal cord compression, CTCAE Grade 3 and 4 AE, Number (%) of patients (All patients, n = 53): 2 (3.8) n (%)
Urinary tract infection, AE of any grade, Number (%) of patients (All patients, n = 53): 8 (15.1) n (%)
Vomiting, AE of any grade, Number (%) of patients (All patients, n = 53): 10 (18.9) n (%)
Weight decreased, AE of any grade, Number (%) of patients (All patients, n = 53): 7 (13.2) n (%)
ALT elevated, AE of any grade, Number (%) of patients (All patients, n = 53, first of two ALT elevated lines): 10 (18.9) n (%)
ALT elevated, AE of any grade, Number (%) of patients (All patients, n = 53, second of two ALT elevated lines): 6 (11.3) n (%)
QT [1]: 438 ms
QTc (QT with Bazett correction) [1]: 457 ms
Patients with dose reduction (all 53 patients): 7.5%
Patients with dose reduction and delay (all 53 patients): 7.5%
Patients with missed dose (all 53 patients): 30.2%
Patients with dose modification (all 53 patients, mainly due to adverse events): 45.3%
Patients who discontinued treatment due to drug-unrelated adverse events (all in cohort 1): 5.7%
Patients with Grade 3 or 4 AE (all patients): 67.9%
Patients with Grade 3 or 4 fatigue (all patients): 11.3%
Patients with diarrhea, Grade 1 and 2 (all patients): 88.7%
Patients with fatigue, Grade 1 and 2 (all patients): 56.6%
Patients with onset of diarrhea between days 1–7 (all patients): 75.5%
Patients with transient ALP elevation (all patients): 18.9%
Patients with transient ALT elevation (all patients): 11.3%
Patients with transient AST elevation (all patients): 17%
Patients with treatment-related anemia (all patients): 5.7%
Patients with treatment-related neutropenia (all patients): 5.7%
Patients with visual changes (all patients, mild and transient): 15%
Patients with abdominal pain (all patients, mild to moderate): 37.7%
Patients with nausea (all patients, mild to moderate): 34%
Patients with vomiting (all patients, mild to moderate): 18.9%
Patients with on-treatment SAEs (all patients, none considered treatment-related): 28.3%
Patients with Grade 2 or 3 hyberbilirubinemia (all patients, not considered study drug-related): 7.5%
Patients with Grade 1 or 2 blurred vision (doses of 35 mg/m^2, 114 mg/m^2 and 150 mg/m^2): Three patients
Patients with QTc prolongation (higher dose levels, Cycle 1 Day 1 post-dose): Three patients
Patients with treatment-related visual impairment (mild and transient): Two patients
Deaths during the study (none deemed treatment-related): Three deaths
Patients with QTc changes (not symptomatic, not considered clinically meaningful): 91%
Patients with Grade 1 transient visual impairment (one each at 216 and 259 mg/m^2, possibly related to study drug): 2 patients
QT [2]: 414 ms
QTc [2]: 433 ms
